Experimental findings from US20210070748A1, “INHIBITORS OF BRUTONS TYROSINE KINASE” (Pharmacyclics LLC, priority 2015, published 2021) are described below.

What all share (type): biochemical
In one test the target is T1, BTK-WT (Homo sapiens, UniProt Q06187).
T1 construct: purified from insect cells as a full-length construct containing an N-terminal 6X-His tag; His6 (N); made in house; host or cells: insect cells (baculovirus Sf21 in Method B)
Briefly: Btk in vitro inhibitory activity (one of Method A TR-FRET, Method B electrophoretic mobility shift, Method C radiometric filter binding). For orientation: In EMSA bound probe runs differently from free probe, usually more slowly.

The target in the next test is T2, JAK3 (Homo sapiens, UniProt P52333).
T2 sequence (P52333 1-1124): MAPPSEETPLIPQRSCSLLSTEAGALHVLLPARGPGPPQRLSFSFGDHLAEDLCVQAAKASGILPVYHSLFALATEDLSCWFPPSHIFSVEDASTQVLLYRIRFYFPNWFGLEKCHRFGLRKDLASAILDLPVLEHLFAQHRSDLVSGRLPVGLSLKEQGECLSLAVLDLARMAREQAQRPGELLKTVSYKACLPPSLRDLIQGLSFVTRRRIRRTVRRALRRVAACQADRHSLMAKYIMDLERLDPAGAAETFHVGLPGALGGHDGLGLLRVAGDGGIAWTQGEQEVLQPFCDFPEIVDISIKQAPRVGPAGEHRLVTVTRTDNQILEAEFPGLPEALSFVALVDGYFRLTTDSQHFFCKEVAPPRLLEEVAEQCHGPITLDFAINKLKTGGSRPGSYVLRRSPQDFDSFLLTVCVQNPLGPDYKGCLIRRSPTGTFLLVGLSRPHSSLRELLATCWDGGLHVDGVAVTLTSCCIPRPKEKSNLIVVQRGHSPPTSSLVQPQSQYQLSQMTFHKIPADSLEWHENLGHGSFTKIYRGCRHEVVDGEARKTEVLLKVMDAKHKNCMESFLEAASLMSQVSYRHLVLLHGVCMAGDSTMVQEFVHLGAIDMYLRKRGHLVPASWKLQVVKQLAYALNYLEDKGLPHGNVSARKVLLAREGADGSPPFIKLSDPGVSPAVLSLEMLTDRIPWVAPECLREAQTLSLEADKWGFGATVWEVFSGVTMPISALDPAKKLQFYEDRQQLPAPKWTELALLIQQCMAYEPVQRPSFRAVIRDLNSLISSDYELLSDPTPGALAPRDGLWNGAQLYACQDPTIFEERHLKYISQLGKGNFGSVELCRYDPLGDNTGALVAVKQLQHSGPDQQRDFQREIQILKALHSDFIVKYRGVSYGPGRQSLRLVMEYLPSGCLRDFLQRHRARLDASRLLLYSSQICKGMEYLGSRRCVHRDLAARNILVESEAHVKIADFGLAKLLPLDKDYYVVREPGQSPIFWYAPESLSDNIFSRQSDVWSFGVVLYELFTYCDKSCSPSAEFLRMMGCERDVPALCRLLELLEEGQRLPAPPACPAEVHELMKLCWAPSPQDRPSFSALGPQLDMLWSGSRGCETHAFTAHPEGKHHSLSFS
Briefly: Inhibition of a panel of kinases, in vitro HotSpot kinase assay: JAK3. The following applies: Table 10, Formula A-I; 1 μM ATP; read-out: JAK3 (IC50).

The target in another test is T3, ITK (Homo sapiens, UniProt Q08881).
T3 sequence (Q08881 1-620): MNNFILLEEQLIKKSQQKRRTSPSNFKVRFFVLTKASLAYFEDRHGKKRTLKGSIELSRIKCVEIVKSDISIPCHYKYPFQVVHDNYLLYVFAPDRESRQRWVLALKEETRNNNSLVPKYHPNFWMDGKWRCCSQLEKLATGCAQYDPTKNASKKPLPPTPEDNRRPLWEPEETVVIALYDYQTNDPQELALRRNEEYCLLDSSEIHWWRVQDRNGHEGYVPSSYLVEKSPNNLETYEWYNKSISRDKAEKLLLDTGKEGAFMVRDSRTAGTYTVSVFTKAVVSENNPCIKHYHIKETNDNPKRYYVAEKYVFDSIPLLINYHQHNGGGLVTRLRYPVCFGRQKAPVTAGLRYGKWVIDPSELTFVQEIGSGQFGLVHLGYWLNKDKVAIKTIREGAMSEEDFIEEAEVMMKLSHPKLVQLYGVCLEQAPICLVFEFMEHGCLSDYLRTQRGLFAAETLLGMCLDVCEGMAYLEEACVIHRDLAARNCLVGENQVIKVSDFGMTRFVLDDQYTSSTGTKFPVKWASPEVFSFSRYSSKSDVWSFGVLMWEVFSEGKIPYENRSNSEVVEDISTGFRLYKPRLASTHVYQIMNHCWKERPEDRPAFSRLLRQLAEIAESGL
As to the kind of experiment: Inhibition of a panel of kinases, in vitro HotSpot kinase assay: ITK. As for the experimental part:
The degree of inhibition of a panel of kinases is determined using the in vitro HotSpot kinase assay (purified enzymes, ^33P-ATP, an appropriate substrate and 1 μM ATP).

Where [1] appears, read: Table 10, Formula A-I, read-out: BTK-WT (IC50).
[2] abbreviates: Table 15, C compounds, 1 μM ATP.
[3] abbreviates: Table 15, C compounds, read-out: IC50 BTK-WT.
[4] abbreviates: E compounds, Table 17, read-out: IC50 BTK-WT.

Like-named read-outs stand apart in the source and are kept apart here.

T1 sequence (Q06187 whole entry): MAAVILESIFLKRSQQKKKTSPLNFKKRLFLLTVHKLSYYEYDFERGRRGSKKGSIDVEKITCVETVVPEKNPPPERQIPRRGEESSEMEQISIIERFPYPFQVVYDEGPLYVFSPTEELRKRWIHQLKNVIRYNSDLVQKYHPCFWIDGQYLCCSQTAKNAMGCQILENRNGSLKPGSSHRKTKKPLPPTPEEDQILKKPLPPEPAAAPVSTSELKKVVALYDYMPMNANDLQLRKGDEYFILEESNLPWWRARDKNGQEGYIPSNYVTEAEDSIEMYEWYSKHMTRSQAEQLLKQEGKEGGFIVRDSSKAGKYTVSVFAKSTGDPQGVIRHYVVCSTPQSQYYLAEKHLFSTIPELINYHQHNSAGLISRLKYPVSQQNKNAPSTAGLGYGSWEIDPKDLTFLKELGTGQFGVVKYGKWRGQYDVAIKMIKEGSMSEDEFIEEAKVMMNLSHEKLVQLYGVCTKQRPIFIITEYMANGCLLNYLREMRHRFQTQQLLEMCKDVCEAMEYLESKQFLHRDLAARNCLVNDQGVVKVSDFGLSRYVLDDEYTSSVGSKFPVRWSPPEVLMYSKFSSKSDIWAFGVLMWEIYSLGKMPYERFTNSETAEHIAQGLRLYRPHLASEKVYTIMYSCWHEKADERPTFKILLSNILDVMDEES

For `Cc1cc(Nc2nc(N3CCC[C@H](NC(=O)c4ccc(N(C)C)cc4)[C@@H]3CO)cnc2C(N)=O)sn1` (stereo in doubt) [Example A-67, 5-[(2R,3S)-3-[4-(dimethylamino)benzamido]-2-(hydroxymethyl)piperidin-1-yl]-3-[(3-methyl-1,2-thiazol-5-yl)amino]pyrazine-2-carboxamide], the IC50 is at most 100 nM at BTK-WT (setting [1]) and 100 to 1000 nM on JAK3.
On the same counts, the results for `CCN1N=CC2C=C(C(=O)N[C@@H]3CCCN(c4cnc(C(N)=O)c(Nc5cc(C)ns5)n4)C3)C=CC21` (stereo partly drawn) [Example A-72, N-[(3R)-1-{5-carbamoyl-6-[(3-methyl-1,2-thiazol-5-yl)amino]pyrazin-2-yl}piperidin-3-yl]-1-ethyl-3a,7a-dihydro-1H-indazole-5-carboxamide] are at most 100 nM and 1000 to 10000 nM.
Turning to `Cc1cc(Nc2nc(N3CCC[C@@H](NC(=O)c4ccc(C5CC5)cc4F)C3)cnc2C(N)=O)sn1` [Example A-39, 5-[(3R)-3-(4-cyclopropyl-2-fluorobenzamido)piperidin-1-yl]-3-[(3-methyl-1,2-thiazol-5-yl)amino]pyrazine-2-carboxamide], the IC50 at BTK-WT (setting [1]) is at most 100 nM; on JAK3, above 10000 nM.
In the same order, the values of `Cc1cc(Nc2nc(N3CCCC(CNC(=O)c4ccc(N(C)C)cc4)C3)cnc2C(N)=O)sn1` (stereo not shown) [Example A-80] are at most 100 nM and 1000 to 10000 nM.
As to `C=CC(=O)N1CCC(C)(c2ccc(Nc3nc(N[C@@H]4CCCN(C(=O)C=C)C4)nnc3C(N)=O)cc2)CC1` [Example C-45, (R)-5-(4-(1-acryloyl-4-methylpiperidin-4-yl)phenylamino)-3-(1-acryloylpiperidin-3-ylamino)-1,2,4-triazine-6-carboxamide], the half-maximal inhibitory concentration (IC50) against ITK (setting [2]) and at BTK-WT (setting [3]) was at most 10 nM throughout.
In the case of `C=CC(=O)N1CCC[C@H](Nc2cnc(C(N)=O)c(Nc3ccc(-c4ncccn4)cc3)n2)C1` [Example E-94, (S)-5-(1-acryloylpiperidin-3-ylamino)-3-(4-(pyrimidin-2-yl)phenylamino)pyrazine-2-carboxamide], the IC50 against ITK (E compounds, Table 17) was 100 to 1000 nM; at BTK-WT (setting [4]) it was at most 10 nM.
Take `C=CC(=O)N1CCC[C@@H](Nc2nnc(C(N)=O)c(Nc3ccc(C4(C#N)CC4)cc3)n2)C1` [Example E-38, (R)-3-(1-acryloylpiperidin-3-ylamino)-5-(4-(1-cyanocyclopropyl)phenylamino)-1,2,4-triazine-6-carboxamide]: the IC50 against ITK (E compounds, Table 17) was at most 10 nM; at BTK-WT (setting [4]), at most 10 nM.
Regarding `C=CC(=O)N[C@@H]1CCC[C@@H](Nc2nnc(C(N)=O)c(Nc3ccc(C(C)C)cc3)n2)C1` [Example E-58, 3-((1R,3R)-3-acrylamidocyclohexyl-amino)-5-(4-isopropylphenylamino)-1,2,4-triazine-6-carboxamide], the IC50 on ITK (E compounds, Table 17) was 100 to 1000 nM; on BTK-WT (setting [4]), at most 10 nM.
On the same counts, the results for `C=CC(=O)N[C@@H]1CCCC[C@@H]1Nc1nnc(C(N)=O)c(Nc2ccc(C(C)C)cc2)n1` [Example E-34, 3-((1S,2R)-2-acrylamidocyclohexyl-amino)-5-(4-isopropylphenylamino)-1,2,4-triazine-6-carboxamide] are 100 to 1000 nM and 10 to 100 nM.
With `C=CC(=O)N1CCC[C@@H](Nc2nnc(C(N)=O)c(Nc3cccc(C)c3)n2)C1` [Example E-44, (R)-3-(1-acryloylpiperidin-3-ylamino)-5-(m-tolylamino)-1,2,4-triazine-6-carboxamide], the IC50 was 10 to 100 nM at ITK (E compounds, Table 17) and at most 10 nM at BTK-WT (setting [4]).
On the same counts, the results for `C=CC(=O)N1CCC[C@@H](Nc2nnc(C(N)=O)c(Nc3cccc(-c4nccs4)c3)n2)C1` [Example E-70, (R)-3-(1-acryloylpiperidin-3-ylamino)-5-(3-(thiazol-2-yl)phenylamino)-1,2,4-triazine-6-carboxamide] are 10 to 100 nM and at most 10 nM.
In the same order, the values of `C=CC(=O)N1CCC[C@@H](Nc2nnc(C(N)=O)c(Nc3ccc(C(C)C)cc3)n2)[C@@H]1C` [Example E-17, 3-((2S,3R)-1-acryloyl-2-methylpiperidin-3-ylamino)-5-(4-isopropylphenylamino)-1,2,4-triazine-6-carboxamide] are 10 to 100 nM and at most 10 nM.
In the case of `C=CC(=O)N1CCC[C@@H](Nc2nnc(C(N)=O)c(Nc3ccc(C4(C#N)CC4)cc3)n2)C1` [Example C-48, (R)-3-(1-acryloylpiperidin-3-ylamino)-5-(4-(1-cyanocyclopropyl)phenylamino)-1,2,4-triazine-6-carboxamide], the IC50 against ITK (setting [2]) and at BTK-WT (setting [3]) was at most 10 nM throughout.
On to `CN(c1cnc(C(N)=O)c(Nc2ccc(C3(C)CCN(C4CCCC4)CC3)cc2)n1)[C@@H]1CCN(C(=O)C(F)(F)F)C1` [Example C-68, (R)-3-(4-(1-cyclopentyl-4-methylpiperidin-4-yl)phenylamino)-5-(methyl(1-(2,2,2-trifluoroacetyl)pyrrolidin-3-yl)amino)pyrazine-2-carboxamide], for which the IC50 against ITK (setting [2]) and on BTK-WT (setting [3]) was at most 10 nM throughout.
Regarding `C=CC(=O)N1CCC[C@@H](Nc2nnc(C(N)=O)c(Nc3ccc(C4CC4)cc3)n2)C1` [Example C-47, (R)-3-(1-acryloylpiperidin-3-ylamino)-5-(4-cyclopropylphenyl-amino)-1,2,4-triazine-6-carboxamide], the IC50 at ITK (setting [2]) was 10 to 100 nM; on BTK-WT (setting [3]), at most 10 nM.
As to `C=CC(=O)N[C@H]1CCCN(c2nnc(C(N)=O)c(Nc3ccc(C(C)C)cc3)n2)C1` [Example E-22, (S)-3-(3-acrylamidopiperidin-1-yl)-5-(4-isopropylphenylamino)-1,2,4-triazine-6-carboxamide], the half-maximal inhibitory concentration (IC50) lay within 100 to 1000 nM against ITK (E compounds, Table 17) and 10 to 100 nM at BTK-WT (setting [4]).
For the molecule `C=CC(=O)N1CCC[C@@H](Nc2nnc(C(N)=O)c(Nc3ccc(-c4cnn(C(=O)C=C)c4)cc3)n2)C1` [Example C-74], the IC50 is 10 to 100 nM on ITK (setting [2]) and at most 10 nM on BTK-WT (setting [3]).
On to `C=CC(=O)N1CCC[C@@H](Nc2nnc(C(N)=O)c(Nc3ccc4c(c3)CCC(=O)N4C)n2)C1` [Example C-87, (R)-3-(1-acryloylpiperidin-3-ylamino)-5-(1-methyl-2-oxo-1,2,3,4-tetrahydroquinolin-6-ylamino)-1,2,4-triazine-6-carboxamide], for which the concentration for half-maximal inhibition (IC50) at ITK (setting [2]) and at BTK-WT (setting [3]) was at most 10 nM in each case.
Take `C=CC(=O)N[C@H]1CCC[C@@H](Nc2nnc(C(N)=O)c(Nc3ccc(C(C)C)cc3)n2)C1` [Example E-59, 3-((1R,3S)-3-acrylamidocyclohexyl-amino)-5-(4-isopropylphenylamino)-1,2,4-triazine-6-carboxamide]: the IC50 against ITK (E compounds, Table 17) was 100 to 1000 nM; on BTK-WT (setting [4]), at most 10 nM.
As to `C=CC(=O)N1CCCC[C@@H](Nc2nnc(C(N)=O)c(Nc3ccc(C(C)C)cc3)n2)C1` [Example C-38, (R)-3-(1-acryloylazepan-3-ylamino)-5-(4-isopropylphenylamino)-1,2,4-triazine-6-carboxamide], the IC50 at ITK (setting [2]) and at BTK-WT (setting [3]) was at most 10 nM each time.

Broadly, the IC50 is the concentration needed to halve the response being measured.
